Experimental data as given in the NIST ThermoML archive (doi:10.1021/je101014q).

Assay: xn = mol fraction of the nth substance listed
Conditions: 101 kPa, Liquid, Cone and plate viscometry

CC(=O)[O-].CCCC[N+](CC)(CC)CC [N,N,N-triethylbutanaminium acetate] + O
viscosity [mPa·s]
Conditions | x1 = 0.17 | x1 = 0.33 | x1 = 0.5 | x1 = 1
298.2 K | 13 | 66 | 79 | 439
313.2 K | 10.9 | 39.4 | 55.5 | 306.7
333.2 K | 5.15 | 12.6 | 15.6 | 47.3
